The subject of the data set is CCRIS mutagenicity, Ames/micronucleus/aberration tests. Briefly: CCRIS mutagenicity studies. To be noted: Test System: AMES SALMONELLA TYPHIMURIUM
[1] abbreviates: Strain/Indicator: TA98, Metabolic Activation: NONE, Method: PREINCUBATION
Where [2] appears, read: Strain/Indicator: TA100, Metabolic Activation: NONE, Method: PREINCUBATION

SMILES strings stand for the structures. Active and inactive are the calls of the source. How the calls were made is not given here.

Regarding `C=C1C[C@@]23CC[C@H]4[C@@](C)(CCC[C@@]4(C)C(=O)O)[C@@H]2CC[C@]1(O)C3`, the mutagenic call (Strain/Indicator: TA97, Metabolic Activation: NONE, Method: PREINCUBATION) was “inactive; negative”; the mutagenic call (Strain/Indicator: TA97, Metabolic Activation: RAT, LIVER, S-9, PCB, Method: PREINCUBATION) was “inactive; negative”; the mutagenic call under setting [1] was “inactive; negative”; the mutagenic call (Strain/Indicator: TA98, Metabolic Activation: RAT, LIVER, S-9, PCB, Method: PREINCUBATION) is “inactive; negative”; the mutagenic call (Strain/Indicator: TA98, Metabolic Activation: RAT, LIVER, S-9, SODIUM PHENOBARBITAL AND 5,6-BENZOFLAVONE, Method: PREINCUBATION) is “inactive; negative”; the mutagenic call under setting [2] was “inactive; negative”. The mutagenic call was “inactive; negative” (Strain/Indicator: TA100, Metabolic Activation: RAT, LIVER, S-9, PCB, Method: PREINCUBATION); “inactive; negative” (Strain/Indicator: TA100, Metabolic Activation: RAT, LIVER, S-9, SODIUM PHENOBARBITAL AND 5,6-BENZOFLAVONE, Method: PREINCUBATION); “inactive; negative” (Strain/Indicator: TA102, Metabolic Activation: NONE, Method: PREINCUBATION); “inactive; negative” (Strain/Indicator: TA102, Metabolic Activation: RAT, LIVER, S-9, PCB, Method: PREINCUBATION); “inactive; negative” (Strain/Indicator: TA104, Metabolic Activation: NONE, Method: PREINCUBATION); “inactive; negative” (Strain/Indicator: TA104, Metabolic Activation: RAT, LIVER, S-9, PCB, Method: PREINCUBATION). In addition, the mutagenic call by setting is: (Strain/Indicator: TM677, Metabolic Activation: NONE, Method: PREINCUBATION) “inactive; negative”; (Strain/Indicator: TM677, Metabolic Activation: RAT, LIVER, MICROSOMES, AROCLOR 1254, Method: SUSPENSION/PLATE) “active; positive”; (Strain/Indicator: TM677, Metabolic Activation: RAT, LIVER, S-9, AROCLOR 1254, Method: PREINCUBATION) “active; positive”; (Strain/Indicator: TM677, Metabolic Activation: RAT, LIVER, S-9, AROCLOR 1254, Method: SUSPENSION/PLATE) “active; positive”.

With `COc1cc(CCCS(=O)(=O)O)ccc1O[C@H](Cc1cccc(OC)c1O)CS(=O)(=O)O`, the mutagenic call was “inactive; negative” (Strain/Indicator: TA98, Metabolic Activation: HAMSTER, LIVER, S-9, AROCLOR 1254, Method: PREINCUBATION); “inactive; negative” under setting [1]; “inactive; negative” (Strain/Indicator: TA98, Metabolic Activation: RAT, LIVER, S-9, AROCLOR 1254, Method: PREINCUBATION); “inactive; negative” (Strain/Indicator: TA100, Metabolic Activation: HAMSTER, LIVER, S-9, AROCLOR 1254, Method: PREINCUBATION); “inactive; negative” under setting [2]; “inactive; negative” (Strain/Indicator: TA100, Metabolic Activation: RAT, LIVER, S-9, AROCLOR 1254, Method: PREINCUBATION). Further, the mutagenic call was “inactive; negative” (Strain/Indicator: TA1535, Metabolic Activation: HAMSTER, LIVER, S-9, AROCLOR 1254, Method: PREINCUBATION); “inactive; negative” (Strain/Indicator: TA1535, Metabolic Activation: NONE, Method: PREINCUBATION); “inactive; negative” (Strain/Indicator: TA1535, Metabolic Activation: RAT, LIVER, S-9, AROCLOR 1254, Method: PREINCUBATION); “inactive; negative” (Strain/Indicator: TA1537, Metabolic Activation: HAMSTER, LIVER, S-9, AROCLOR 1254, Method: PREINCUBATION); “inactive; negative” (Strain/Indicator: TA1537, Metabolic Activation: NONE, Method: PREINCUBATION); “inactive; negative” (Strain/Indicator: TA1537, Metabolic Activation: RAT, LIVER, S-9, AROCLOR 1254, Method: PREINCUBATION).

The values above are taken from PubChem BioAssay AID1259407 (Chemical Carcinogenesis Research Information System (CCRIS), 2018).
